Reference: a melting point compilation (Tetko et al.; mined from patent text by program, amines drawn as free bases though some values may be those of a salt)
Residues, ends and D or L forms follow the SMILES beside them.

melting point | SMILES
274 to 276 °C | O=CN1CC2CC1CN2c1cc2c(cc1F)c(=O)c(C(=O)O)cn2-c1ccc(F)cc1 (stereo unspecified)
165 to 167 °C | COc1ccc2c(c1)c(Cc1nc3c(F)c(F)cc(F)c3s1)cn2CC(=O)O
151 to 154 °C | Oc1ccc(OCCCCCCCCOc2ccc(O)cc2)cc1
181 to 182 °C | O=c1c2ccccc2nc(-c2sc(Nc3ccccc3)nc2-c2ccccc2)n1-c1ccccc1
156 to 157 °C | CC(C)(C)OC(=O)Nc1ccc(-c2ccc(F)cc2)cc1NC(=O)CC(=O)c1sccc1C#N
104 °C | COCOc1ccc(C=CC(=O)c2c(O)cc(OC)cc2OC)cc1
126 to 128 °C | CCc1ccc(-c2c(Cl)c(CCl)nc3sc4c(c23)CCN(C(=O)OCc2ccccc2)C4)cc1
86 to 88 °C | CC1(C)CON(Cc2c(Cl)cccc2[N+](=O)[O-])C1=O
175 to 177 °C | COC(=O)C=Cc1cc(OC)ccc1-c1ccccc1
144 °C | CC(C)CN(C)S(=O)(=O)c1cccc(-c2cc(-c3nc(-c4ccc(C(F)(F)F)cc4)cc(C(F)(F)F)n3)ccn2)c1
202 to 204 °C | CCCn1c(COCC)nc2c(N)nc3ccc(OCCNC(=O)C4CCCO4)cc3c21 (stereo unspecified)
254 to 258 °C | CC12CCC3(CC1CCC1C2CCC2(C)C(N)C(O)CC12)OCCO3 (stereo unspecified)
120 to 122 °C | O=C(c1cc(-c2ccc(F)cc2)c(-c2ccc(F)cc2)s1)C(F)(F)F
201 to 202 °C | O=c1c2cc(F)c(F)cc2n(-c2ccc(F)cc2)c(=O)n1OCc1ccccc1
280 °C | Cc1cc(N)nc(/C=C/c2nc3cc(Br)cnc3[nH]2)c1
125 °C | c1ccc(C2NCCNCc3ccccc32)cc1 (stereo unspecified)
189 to 191 °C | CC12CC(=O)C3C(CCC4CC=CCC43C)C1CCC2C#N (stereo unspecified)
52 to 53 °C | COC1C(O)CCC(O)(CSC)C1C1(C)OC1CC=C(C)C (stereo unspecified)
122 to 125 °C | Nc1ccc(NNC=O)cc1
132 to 133 °C | COc1cc2c(cc1OC)-c1c(Cl)nc3ccccc3c1C2=O

melting point | SMILES
162 to 163 °C | Oc1ccc(C2=NCCO2)cc1
64 to 66 °C | O=C(O)C=CC(=O)NCCC(F)=C(F)F
148 to 149 °C | CCCC(=O)NCCCCn1c(CC)nc2c(N)nc3ccccc3c21
151 to 156 °C | CCN1C(=O)CC(C(=O)O)C1c1ccccc1 (stereo unspecified)
159 to 161 °C | COC(=O)COc1ccc(S(=O)(=O)c2ccc(O)cc2)cc1
211 to 214 °C | N#Cc1ccc(-c2sc(N3C(=O)c4ccccc4C3=O)c(C(=O)c3ccc(Cl)cc3)c2CBr)cc1
262 to 265 °C | O=C(O)c1cc2cccc(Cl)c2s1
240 to 250 °C | Nc1n[nH]c(-c2cc(Cl)nc(Cl)c2)n1
113 °C | NC(=O)c1ccnc(Oc2cccc(C(F)(F)F)c2)n1
157 to 159 °C | CNC(=S)NCCSCc1nc2ccccc2[nH]1
230 to 233 °C | CCc1cn(C)c2cc(-c3ccccc3Cl)c3c(c12)C(=O)NC3=O
150 to 151 °C | O=C(O)c1cccc(OCc2cc(Cl)cc(Cl)c2)c1OCc1cc(Cl)cc(Cl)c1
250 to 252 °C | CCOC(=O)CN1C(=O)C(=S2CN(CC)c3ccccc32)SC1=S (stereo unspecified)
132 to 133 °C | CC(F)(F)c1cccc(C[C@@H](C(=O)O)[C@@H](O)c2ccc(F)cc2)c1 (racemic)
232 to 234 °C | COc1ccc(C=C2c3ccccc3C(=NOCC(=O)O)c3ccccc32)cc1O
217 °C | O=C(C(c1ccc(Cl)cc1)c1c(Cl)cc(-n2ncc(=O)[nH]c2=O)cc1Cl)N1CCCCC1 (stereo unspecified)
102 to 106 °C | N#Cc1ccc2c(c1)C=C(C(=O)O)C(C(F)(F)F)O2 (stereo unspecified)
278 °C | Cn1ncc2[nH]c3ccc(Cc4ccccc4Cl)cc3c(=O)c21
217 to 218 °C | Cc1cccc(C(N)=O)c1NS(=O)(=O)c1nc2scc(C)n2n1
220 to 223 °C | NC(=O)Cc1ccc(-c2ccc3nnn(Cc4ccc5ncccc5c4)c3n2)cc1

melting point | SMILES
93 to 94 °C | CC(C)OC(=O)C(C(=O)NCc1ccccc1)=C1SCS1
97 to 98 °C | COP(=O)(Nc1cc(C(C)C)ccc1N1CCOCC1)OC
264 to 265 °C | Cc1c(C(=O)c2cccnc2)sc2ccc(C(=O)O)cc12
88 to 92 °C | Cc1ccc2c(cc(CCC(=O)O)n2S(=O)(=O)c2ccccc2)n1
114 to 117 °C | CC(C)N1CCN=C1c1ccccc1C(=O)c1ccc(Cl)cc1
244 to 245 °C | COc1ccc(C2CCC(=O)Nc3ccccc3C2=O)cc1 (stereo unspecified)
135 to 139 °C | CC(=O)C(=Cc1ccc(S(C)(=O)=O)c(Br)c1)C(C)=O
238 to 242 °C | COC(=O)C(Cc1ccccc1)NC(=O)C(CC(=O)O)NC(=O)C1CCCN1 (stereo not drawn) (H-Pro-Asp-Phe-OMe; configuration not given here)
180 to 182 °C | CC(C)c1ccc(N(Cc2cnn(CC(=O)O)c2)C(=O)C2CCCc3c(OCc4ccccc4)cccc32)cc1 (stereo unspecified)
86 to 88 °C | COc1nc(OC)c(C(C)C)c(C(=O)c2cc(C)cc(C(OC)OC)c2)n1
100 to 101 °C | Cc1cc(F)c(Br)cc1CC(=O)O
215 to 217 °C | COc1cc2ncnc(N3CCN(C(=O)Nc4ccc(CC(C)C)cc4)CC3)c2cc1OC
45 °C | CCOC(=O)CN1[C@H](C)CN(c2ccc(N)cc2C#N)C[C@@H]1C
233 to 235 °C | c1coc(-c2nc3nsnc3nc2-c2ccncn2)c1
> 300 °C | O=c1[nH]c(-c2csc3ccccc23)nc2ccc(N3CCOCC3)cc12
227 to 229 °C | COc1cc2c(cc1-c1cccnc1)-c1c(-c3cncs3)c3c(n1CC2)C(=O)N(C(C)(C)C)CCCC3
301 °C | Cn1ncc2[nH]c3ccc(F)cc3c(=O)c21
174 °C | Cc1nccn2c(-c3ccnc(NCC(C)(C)CO)n3)c(-c3ccc(F)cc3F)nc12

More lines, now with the values behind:

SMILES | melting point
CCCCCCCCCCc1nnnn1CC(=O)Nc1c(C(C)C)cccc1C(C)C | 71 to 73 °C
OC(COc1cccc2[nH]nnc12)CN1CCC(COc2ccccc2)CC1 (stereo unspecified) | 187 to 189 °C
CC1(C)[C@H](C=C(Cl)Cl)[C@@H]1C(=O)OCc1cccc(-c2ccc(Br)o2)c1 (relative stereo) | 76.5 to 77 °C
C=CCSc1cn(C)cc(-c2ccccc2)c1=O | 136 to 138 °C
CC(C)(C)C(=O)NS(=O)(=O)c1cccc(N)c1 | 147 to 150 °C
COc1cc(N)c(Cl)cc1C(=O)NCC1CCN(CCCCCC(=O)c2ccc(Cl)c(Cl)c2)CC1 | 203 to 205 °C
CCOC(=O)Cc1ccnc2c(NC(=O)c3c(Cl)cccc3Cl)cccc12 | 150 to 152 °C
CN(C(=O)C1CCC1)c1cccc(-c2ccnc3c(C(=O)c4ccccc4)cnn23)c1 | 168 to 170 °C
O=C1CC2(Cc3cc4ccccc4n3C2)C(=O)N1 (stereo unspecified) | 215 to 220 °C
COc1cccc(C2CCCCN(Cc3ccccc3)C2=O)c1 (stereo unspecified) | 120 to 122 °C
O=C(O)c1c2ccccc2nc2ccc3ccccc3c12 | 169 to 170 °C
O=S(=O)(O)c1cccc(Cl)n1 | 274 to 275 °C
CNc1nc(C)c(-c2ccc(Cl)c([N+](=O)[O-])c2)s1 | 220 to 232 °C
CC(C)(C)C(=O)Nc1ccc(Br)cc1-c1ccnc(C(F)(F)F)n1 | 153 to 157 °C
CCCCCCC[C@@H](O)[C@@H](NCc1ccccc1)C(=O)O | 197 to 199 °C
COc1ccc(-c2c(/C=C/C(=O)Oc3ccc([N+](=O)[O-])cc3)ccc3cc(OC)ccc23)cc1 | 160 to 161 °C
CCCCCCCc1ccc(-c2cnc([C@H]3CC[C@H](C#N)CC3)nc2)cc1 | 83.5 °C
CC(=O)c1ccc(O)c(-n2nc3ccccc3n2)c1 | 147 °C
COCc1cc2ccccc2c(Oc2ccc(/C=C/C(=O)O)cc2)c1-c1ccccc1 | 76 to 79 °C
Nc1ccc(N2CCN(CCCN3c4cccc5cccc(c45)S3(=O)=O)CC2)cc1 | 113 °C
O=C(O)c1ncn2c1c(=O)[nH]c1ccccc12 | > 300 °C
CCOC(=O)Nc1ccc(C(=O)CCC(=O)O)cc1 | 206 to 207 °C

SMILES | melting point
COc1ccc(-c2nc(N)ncc2-c2ccc(=O)n(C)n2)cc1F | 245 °C
COc1cc(OC)c(F)c(N2Cc3cnc(SC)nc3N(C3CC3)C2=O)c1F | 173 to 176 °C
COc1ccc2c(c1)c(OC(C)C)c(C(=O)O)n2-c1ccccc1 | 110 °C
CCOC(=O)Nc1nc(C)c(-c2nc3ccccc3c(=O)n2-c2ccc(Cl)cc2)s1 | > 275 °C
Cc1nnc2n1-c1sc(Cl)cc1C(c1c(F)cccc1F)=NC2 | 185 to 187 °C
CC1Cc2c(N3C(=O)c4ccccc4C3=O)ccc(Cl)c2O1 (stereo unspecified) | 197 to 198 °C
COC(c1nccs1)(c1nccs1)C(F)(F)F | 40 to 41 °C
Cc1ccc(C(=O)C(=NN)c2ccc(C)cc2)cc1 | 137 to 140 °C
O=C(O)COCCC1CCN(c2cnc(-c3ccccc3)c(-c3ccccc3)n2)CC1 | 173 to 174 °C
Nc1ccc(C(=O)N2Cc3cccn3Cc3ccccc32)c(Cl)c1 | 210 to 212 °C
O=C1Nc2ccccc2CCC1N1C(=O)c2ccccc2C1=O (stereo unspecified) | 261 to 263 °C
CC(c1oc2ccccc2c(=O)c1-c1cccc(F)c1)n1nc(-c2ccc(N3CCOCC3)nc2)c2c(N)ncnc21 (stereo unspecified) | 269 to 271 °C
CN1CCN(c2ccc([N+](=O)[O-])c(C(=O)O)c2)CC1 | 212 °C
COC[C@@H]1C(=O)Nc2ccc(C(F)(F)F)cc2C[C@@H]1c1ccc(OC)cc1 (relative stereo) | 220 to 228 °C
CCOC(=O)N1CCN(c2nc(C)nc3c2OCC(=O)N3)CC1 | 197 to 198 °C
CC(O)(CCBr)c1ccc(-c2ccc(F)cc2)cc1 (stereo unspecified) | 72 to 74 °C
O=C(Cc1ccnc(Br)c1)c1ccccn1 | 111 °C
CSc1ccc(C(=O)Cc2ccccc2)cc1Cl | 101 to 102 °C
Oc1ccc([C@H]2CC[C@H](NCC#Cc3ccccc3)CC2)cc1 | 131 to 136 °C
O=C(NC(Cc1ccccc1)C1CC(Cc2ccccc2)=NO1)OCc1ccccc1 (stereo unspecified) | 87.5 to 89.5 °C
COc1c2c(cc3c1OCO3)C(OC(C)=O)CN(C)C2 (stereo unspecified) | 109 to 110 °C
